According to US20050214886A1, “TNF modulation” (YEDA RESEARCH AND DEVELOPMENT CO. LTD., priority 1995, published 2005):

System: 26 kDa TNF molecules in HeLa-M9 cells
Assay: [32P] metabolic labeling and immunoprecipitation: phosphorylation of 26 kDa TNF
Format: cell-based, human
Details: preliminary experiments, data not shown
Text: The intracellular region is the only part of the TNF molecule accessible for phosphorylation by cytoplasmic protein kinases. The specific kinases involved in TNF phosphorylation are not known, nor is it known if, and in what way, the activity of these kinases is subject to modulation by agents that affect TNF activity. Evidently, the phosphorylation observed in the HeLa-M9 cells, in which TNF was synthesized without stimulation, reflects the function of kinase(s) that constitutively act in these cells. On the other hand, the phosphorylation observed in the LPS-stimulated MM6 cells could involve effects of LPS activated protein kinases (Liu et al., 1994; Han et al., 1995). The serine at position −50 seems to be a suitable substrate for phosphorylation by protein kinase C (Kennelly and Krebs, 1991).
Labeling of cells with [^35S]Met or [^32P) orthophosphate was performed by incubation in Met-free or phosphate-free medium, supplemented with 5 or 10% FCS, that had been dialyzed against either PBS or 0.9% NaCl, respectively. […]
Immunoprecipitation was performed using sheep anti-TNF antiserum or, as a control, non-immune sheep serum, at a dilution of 1:200. […] The immunoprecipitated proteins were analyzed by SDS-PAGE under reducing conditions (12% acrylamide). […]

CCCCCCCCCCCCCC(=O)O[C@@H]1[C@@H](C)[C@@]2(O)[C@@H](C=C(CO)C[C@]3(O)C(=O)C(C)=C[C@@H]23)[C@@H]2C(C)(C)[C@]12OC(C)=O [4β-phorbol-12-myristate-13-acetate]
increase of phosphorylation of the 26 kDa TNF molecules: did not observe any increase of phosphorylation
